Tests used:
[1] = molecular target: HLA-B*5101 (Homo sapiens, UniProt P01889, A329T/A93T/A95T/C349S/D138N/D201E/D98Y/E187L/E204Q/E69T/G107R/I218V/K202T/L105A/L119W/N104I/Q94N/R106L/R155S/R180L/S101N/S121T/S35A/S48A/V306I/V36M/Y195H/Y91F); test: Surface plasmon resonance (SPR) binding to soluble HLA-B*5101; conditions: for binding to other HLA-B molecules (SPR): HLA-B*5101: at therapeutic concentrations
[2] = molecular target: T1, HLA-B*1501 (Homo sapiens, UniProt P01889, A329T/A93T/A95T/C349S/D201E/D98Y/E187L/E204Q/E69M/E70A/K202T/N87E/Q94N/R155S/R180W/S121R/S35A/S48A/V306I/V36M/Y140S/Y91S); test: Surface plasmon resonance (SPR) binding to soluble HLA-B*1501; conditions: for binding to other HLA-B molecules (SPR): HLA-B*1501: at therapeutic concentrations
T1 construct: Complexes containing soluble HLA-B*1501 or 1503 and β2-microglobulin were prepared following the same procedure described above; made in house

[3] = molecular target: HLA-B*1503 (Homo sapiens, UniProt P01889, A329T/A93T/A95T/C349S/D201E/D98Y/E187L/E204Q/K202T/N87E/Q94N/R155S/R180L/S121R/S35A/V306I/V36M/Y140S/Y91S); test: Surface plasmon resonance (SPR) binding to soluble HLA-B*1503; conditions: for binding to other HLA-B molecules (SPR): HLA-B*1503: at therapeutic concentrations
[4] = molecular target: HLA-B*4001 (Homo sapiens, UniProt P01889, A65T/A93T/A95T/D138N/D98Y/E176V/E69K/N87E/Q56L/Q94N/R180L/S121R/S35A/S48T/T167S/V36M/W171L/Y33H/Y91S); test: Surface plasmon resonance (SPR) binding to soluble HLA-B*4001; conditions: for binding to other HLA-B molecules (SPR): HLA-B*4001: at therapeutic concentrations
[5] = system: CBZ-specific CD8+ T cells; test: [3H] thymidine incorporation assay, T cell proliferation with fixed and non-fixed B-LCLs; type: cell-based, human; conditions: fixed and unfixed autologous B-LCL; FIG. 4
Procedure: (§1) PBMC were isolated by the density-gradient Ficoll-Paque method according to the manufacturer's instructions (GE Healthcare Company, Piscataway, N.J., USA). […] After 3˜4 times of restimulation, CD8^+ T cells were sorted out for further functional assays. T cells were cultured with RPMI-HS medium consisted of RPMI 1640 supplemented with 10% heat-inactivated human type AB serum (Labquid Inc, Ontario, Calif.) and 50 U/ml IL-2 (R&D Systems, Minneapolis, Minn., USA). EBV-transformed B-cell lines (B-LCL) were generated by transforming the donor's PBMCs with supernatant from the EBV-producing cell lines B9-85.
(§2) Irradiated APCs (10^3) and T cells (10^4) were incubated with a test compound for 48 hours, and the proliferation of T cells was measured by incorporation of [^3H] thymidine. For fixation assay, autologous B-LCLs were pretreated with 0.05% paraformaldehyde for 30 s. For pulsing experiments, drugs were preincubated with B-LCLs overnight. B-LCLs were washed repeatedly to remove noncovalently bound drug, and then incubated with T cells.

[6] = system: autologous B-LCL cells; test: 51Cr-release cytotoxicity assay, CBZ-specific CD8+ T cells against drug-pulsed autologous B-LCL; type: cell-based, human; conditions: B-LCL pulsed with 25 μg/ml drug overnight at 37° C. and washed out before the cytotoxicity assay; FIG. 3
Procedure: as §1
as §2, with “B-LCLs were washed repeatedly to remove noncovalently bound drug, and then incubated with T cells.” left out
B-LCLs, preincubated with IFN-γ (R&D Systems, Minneapolis, Minn., USA) overnight, were first incubated with ^51Cr (Perkin Elmer, Waltham, Mass., USA) for 1 hr at 37° C. […] Radioactivity in the supernatant from each wells was measured by a Topcount (Packard Biosciences, Meriden, Conn., USA). The percentage of specific lysis was calculated as follows: (^51Cr release in the test well−spontaneous ^51Cr release)/(maximum ^51Cr release−spontaneous ^51Cr release).

[7] = system: peptides bound to the soluble HLA-B*1502-β2-microglobulin complex; test: Analysis of HLA-B-bound drug-modified peptides by liquid chromatography-tandem mass spectrometry (C1R-HLA-B*1502 clone treated with CBZ); set-up: species or system human; conditions: C1R-HLA-B*1502 culture, 50 μg/mL for 48 hours; LC-tandem MS of <3-kDa fraction

| Structure (SMILES) | binding to other HLA-B molecules (SPR): HLA-B*5101 [1] | binding to other HLA-B molecules (SPR): HLA-B*1501 [2] | binding to other HLA-B molecules (SPR): HLA-B*1503 [3] | binding to other HLA-B molecules (SPR): HLA-B*4001 [4] | presentation by B-LCL and activation (proliferation) of CBZ-specific CD8+ T cells [5] | response (specific lysis) of CBZ-specific CD8+ T cells to pulsed autologous B-LCL [6] | binding to HLA-B*5101 (SPR) ([1]; FIG. 6) | binding to HLA-B*1501 (SPR) ([2]; FIG. 6) | binding to HLA-B*1503 (SPR) ([3]; FIG. 6) | binding to HLA-B*4001 (SPR) ([4]; FIG. 6) | covalent binding of drug to HLA-B*1502-bound peptides [7] |
| --- | --- | --- | --- | --- | --- | --- | --- | --- | --- | --- | --- |
| NCC1(CC(=O)O)CCCCC1 [GAB, gabapentin] | did not bind | did not bind | did not bind | did not bind | negative results | – | – | – | – | – | – |
| CC[C@@H](C(N)=O)N1CCCC1=O [LEV, levetiracetam] | did not bind | did not bind | did not bind | did not bind | – | – | – | – | – | – | – |
| CC1(C)O[C@@H]2[C@@H](CO[C@@]3(COS(N)(=O)=O)OC(C)(C)O[C@@H]23)O1 [TOP, topiramate] | did not bind | did not bind | did not bind | did not bind | – | – | – | – | – | – | – |
| NC(=O)N1c2ccccc2C=Cc2ccccc21 [CBZ, carbamazepine] | – | – | – | – | able to be presented by both fixed and unfixed autologous B-LCL and activated | none of the CBZ-specific CD8^+ T cells responded | did not bind | neither CBZ nor its seven analogs (see the Compounds section above) binds | neither CBZ nor its seven analogs (see the Compounds section above) binds | did not bind | does not covalently bind to peptides |

Source: patent publication US8927462B2, “Method for identifying HLA complexes associated with adverse drug reactions” (Academia Sinica, priority 2010, dated 2015)
